{"source": "patent US10758549B2", "about": "“Compositions of obeticholic acid and methods of use” (Intercept Pharmaceuticals, Inc., priority 2015, dated 2020)", "key": {"[1]": {"system": "PBC patients", "test": "Example 7: 12-week placebo-controlled OCA monotherapy study (10 mg, 50 mg) in PBC", "format": "in vivo, human", "conditions": "for ALP Change from Baseline to Day 85/ET, Mean / ALP Level at Day 85/ET, Mean / ALP Level at Day 85/ET, Median / Percent Change in ALP from Baseline to EOS, Mean (SD) / Percent Change in ALP from Baseline to EOS, Median / GGT level at Day 85/ET, mean (SD): ITT", "experimental": "This example describes a study of two doses of OCA (10 mg and 50 mg) vs. placebo for a period of 12 weeks (85 days). The study was completed by 48 patients and PK data are available for 34 patients. All patients returned to the study site for 4 visits (Day 15, Day 29, Day 57, and Day 85) for evaluations of efficacy, safety, tolerability, and compliance with investigational product.\nKey Exclusion Criteria • 1. The following drugs were contraindicated: ursodeoxycholic acid (UDCA), colchicine, methotrexate, azathioprine, or systemic corticosteroids • 2. Conjugated bilirubin>2×ULN; ALT or AST>5×ULN and serum creatinine>133 μmol/L (1.5 mg/dL) • 3. History or presence of hepatic decompensation • 4. History of presence of concomitant liver diseases such as Hepatitis B or C; HIV; primary sclerosing cholangitis, alcoholic liver disease, definite autoimmune liver disease or biopsy proven nonalcoholic steatohepatitis (NASH).\nThe percent change (%) in serum ALP from Baseline to End of Study (EOS) was monitored. The baseline value was the mean of the pretreatment screening and day 0 evaluations. The EOS value was Day 85/ET or the last observed ALP value on treatment.\nAbsolute changes in serum ALP levels were monitored from Baseline to Day 15, Day 29, Day 57, Day 85/ET and Follow-Up (Day 99). The percentage of patients was calculated who met the definition of PBC responder criteria applying the Paris I, Toronto I, Toronto II, Toronto III, Toronto IV, Mayo II, and Barcelona disease prognostic risk criteria at Day 85/ET. Each patient was tested for absolute and percent change in serum aspartate aminotransferase (AST), alanine aminotransferase (ALT), gamma-glutamyl transferase (GGT), and conjugated (direct) bilirubin values from Baseline to Day 15, Day 29, Day 57, Day 85/ET and Follow-Up (Day 99)."}, "[2]": {"test": "Example 10: clinical pharmacology / pharmacokinetics of OCA", "format": "in vivo, human", "conditions": "for Urinary excretion / dose excreted in feces: radiolabeled ([^14C]) obeticholic acid", "experimental": "This example describes clinical pharmacology and dosing of obeticholic acid (OCA—including obeticholic acid compositions described herein). […] OCA can be supplied as an oral tablet containing obeticholic acid in a formulation as described herein.\nMedian Tmax for glyco-OCA and tauro-OCA is 10 hours.\nFollowing an oral administration of 25 mg [^14C]-OCA, about 87% of the dose is excreted in feces through biliary secretion. Less than 3% of the dose is excreted in the urine with no detection of OCA."}, "[3]": {"target": "T1, CYP2C8 (Homo sapiens, UniProt P10632)", "T1 sequence (P10632 1-490)": "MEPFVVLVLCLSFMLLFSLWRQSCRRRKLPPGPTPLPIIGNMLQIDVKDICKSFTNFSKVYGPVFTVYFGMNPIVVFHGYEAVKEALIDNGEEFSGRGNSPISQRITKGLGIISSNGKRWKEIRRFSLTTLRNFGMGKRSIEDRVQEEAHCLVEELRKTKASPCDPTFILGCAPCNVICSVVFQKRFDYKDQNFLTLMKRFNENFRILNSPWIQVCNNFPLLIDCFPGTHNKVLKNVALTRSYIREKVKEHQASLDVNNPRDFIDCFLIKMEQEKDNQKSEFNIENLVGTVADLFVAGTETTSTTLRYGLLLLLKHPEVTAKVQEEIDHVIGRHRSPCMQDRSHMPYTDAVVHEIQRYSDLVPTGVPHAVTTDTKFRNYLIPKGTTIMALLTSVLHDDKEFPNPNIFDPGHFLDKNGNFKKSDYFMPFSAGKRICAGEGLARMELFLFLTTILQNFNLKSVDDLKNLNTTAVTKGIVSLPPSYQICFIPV", "test": "In vitro studies: CYP inhibition", "format": "in vitro ADME"}, "[4]": {"conditions": "oral, listed as obeticholic acid"}}, "note": "Read-outs that look alike come from different tables or passages of the source."}
{"smiles": "CC[C@H]1[C@@H](O)[C@@H]2[C@H](CC[C@]3(C)[C@@H]([C@H](C)CCC(=O)O)CC[C@@H]23)[C@@]2(C)CC[C@@H](O)C[C@@H]12", "note": "[OCA, 3α,7α-dihydroxy-6α-ethyl-5β-cholan-24-oic acid]", "values": [{"measurement": "mean change in LDL-C at Day 85/ET", "setting": "[1]; OCA 10 mg", "value": "+0.10 (0.58) mmol/L"}, {"measurement": "ALP Change from Baseline to Day 85/ET, Mean", "setting": "[1]; OCA 10 mg (n = 20)", "value": "−233.5", "unit": "U/L"}, {"measurement": "ALP Level at Day 85/ET, Mean", "setting": "[1]; OCA 10 mg (n = 20)", "value": 228.1, "unit": "U/L"}, {"measurement": "ALP Level at Day 85/ET, Median", "setting": "[1]; OCA 10 mg (n = 20)", "value": 196.5, "unit": "U/L"}, {"measurement": "Percent Change in ALP from Baseline to EOS, Mean (SD)", "setting": "[1]; OCA 10 mg (n = 20)", "value": "−44.5 (24.4) %"}, {"measurement": "Percent Change in ALP from Baseline to EOS, Median", "setting": "[1]; OCA 10 mg (n = 20)", "value": "−53.9", "unit": "%"}, {"measurement": "GGT level at Day 85/ET, mean (SD)", "setting": "[1]; OCA 10 mg, baseline 653 (370) U/L", "value": "184 (203) U/L"}, {"measurement": "HDL-C at end of treatment (ET), mean (SD)", "setting": "[1]; OCA 10 mg, baseline 1.73 (0.45) mmol/L", "value": "1.57 (0.46) mmol/L"}, {"measurement": "AST level at Day 85/ET, mean (SD)", "setting": "[1]; OCA 10 mg, baseline 67 (33) U/L", "value": "54 (40) U/L"}, {"measurement": "ALT level at Day 85/ET, mean (SD)", "setting": "[1]; OCA 10 mg, baseline 86 (44) U/L", "value": "54 (41) U/L"}, {"measurement": "mean change in LDL-C at Day 85/ET", "setting": "[1]; OCA 50 mg", "value": "+0.23 (0.52) mmol/L"}, {"measurement": "ALP Change from Baseline to Day 85/ET, Mean", "setting": "[1]; OCA 50 mg (n = 16)", "value": "−161.3", "unit": "U/L"}, {"measurement": "ALP Level at Day 85/ET, Mean", "setting": "[1]; OCA 50 mg (n = 16)", "value": 269.8, "unit": "U/L"}, {"measurement": "ALP Level at Day 85/ET, Median", "setting": "[1]; OCA 50 mg (n = 16)", "value": 197.5, "unit": "U/L"}, {"measurement": "Percent Change in ALP from Baseline to EOS, Mean (SD)", "setting": "[1]; OCA 50 mg (n = 16)", "value": "−37.6 (21.0) %"}, {"measurement": "Percent Change in ALP from Baseline to EOS, Median", "setting": "[1]; OCA 50 mg (n = 16)", "value": "−37.2", "unit": "%"}, {"measurement": "GGT level at Day 85/ET, mean (SD)", "setting": "[1]; OCA 50 mg, baseline 455 (418) U/L", "value": "202 (300) U/L"}, {"measurement": "HDL-C at end of treatment (ET), mean (SD)", "setting": "[1]; OCA 50 mg, baseline 1.95 (0.55) mmol/L", "value": "1.86 (0.56) mmol/L"}, {"measurement": "AST level at Day 85/ET, mean (SD)", "setting": "[1]; OCA 50 mg, baseline 66 (29) U/L", "value": "56 (28) U/L"}, {"measurement": "ALT level at Day 85/ET, mean (SD)", "setting": "[1]; OCA 50 mg, baseline 71 (38) U/L", "value": "49 (29) U/L"}, {"measurement": "dropout rate", "setting": "[1]; OCA 50 mg, early in treatment (<1 month)", "value": 44, "unit": "%"}, {"measurement": "ALP reduction, on average", "setting": "[1]; each OCA dose (10 mg and 50 mg monotherapy), early stage PBC", "value": "approximately 40%"}, {"measurement": "effect of food on PK", "setting": "[2]; 10 mg OCA", "value": "does not have a clinically relevant effect"}, {"measurement": "increase in obeticholic acid exposure", "setting": "[2]; 20 mg omeprazole once daily with obeticholic acid 10 mg once daily", "value": "less than 1.2 fold"}, {"measurement": "systemic exposure versus dose", "setting": "[2]; 5, 10, and 25 mg once daily for 14 days", "value": "increase dose proportionally"}, {"measurement": "Vd", "setting": "[2]; human, in vivo, read-out: volume of distribution", "value": 613, "unit": "L"}, {"measurement": "Tmax", "setting": "[2]; human, plasma, multiple oral doses of OCA 10 mg once daily, read-out: median time (Tmax) of peak plasma concentrations", "value": "~1.5", "unit": "h"}, {"measurement": "half-life", "setting": "[2]; human, plasma, oral, read-out: effective half-life (converted)", "value": "~1440", "unit": "min"}, {"measurement": "Tmax", "setting": "[2]; human, plasma, oral, read-out: median time (tmax) of peak plasma concentrations", "value": "~2", "unit": "h"}, {"measurement": "Urinary excretion", "setting": "[2]; oral", "value": "Less than 3%"}, {"measurement": "dose excreted in feces", "setting": "[2]; oral", "value": "about 87%"}, {"measurement": "Urinary excretion", "setting": "[2]; [4]", "value": "less than 3%"}, {"measurement": "dose excreted in feces", "setting": "[2]; [4]", "value": "greater than 85%"}, {"measurement": "inhibition of CYP2C8", "setting": "[3]", "value": "not an inhibitor"}]}
